Measurements taken from patent publication US10597388B2, “Pyridazinone herbicides” (FMC CORPORATION, priority 2014, dated 2020).

Experiments:
Format in all cases: in vivo
[1] = test system: Italian ryegrass (Lolium multiflorum); experiment: Test E greenhouse herbicide test, pre- and postemergence
How it was run: (§1)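 Seedlings reaching 2–18 cm (1- to 4-leaf stage) received foliar treatment, while seeds in silt loam received a soil surface spray; the vehicle in each case was a non-phytotoxic solvent mixture including surfactant. Visual scoring versus controls followed 14–21 d later on a 0–100 scale.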

[2] = test system: beggarticks (hairy beggarticks, Bidens pilosa); experiment: as above
How it was run: as §1

corn (Zea mays) = experiment: as above
How it was run: as §1

[3] = test system: dayflower (Virginia (VA) dayflower, Commelina virginica); experiment: as above
How it was run: as §1

[4] = test system: foxtail, green (green foxtail, Setaria viridis); experiment: as above; conditions: Preemergence
How it was run: as §1

kochia (Kochia scoparia) = experiment: as above
How it was run: as §1

[5] = test system: lambsquarters (Chenopodium album); experiment: as above; conditions: Preemergence
How it was run: as §1

[6] = test system: nutsedge, yellow (yellow nutsedge, Cyperus esculentus); experiment: as above; conditions: Preemergence
How it was run: as §1

[7] = test system: sandbur (southem sandbur, Cenchrus echinatus); experiment: as above
How it was run: as §1

[8] = test system: velvetleaf (Abutilon theophrasti); experiment: as above; conditions: Preemergence
How it was run: as §1

[9] = test system: waterhemp (common waterhemp, Amaranthus rudis); experiment: as above
How it was run: as §1

[10] = test system: waterhemp_RES1 (ALS & Triazine resistant common waterhemp, Amaranthus rudis); experiment: Test E greenhouse herbicide test, postemergence
Procedure: (§2) At the same time, plants from these crop and weed species and also waterhemp_RES1, (ALS & Triazine resistant common waterhemp, Amaranthus rudis), and waterhemp_RES2, (ALS & HPPD resistant common waterhemp, Amaranthus rudis) were planted in pots containing Redi-Earth® planting medium (Scotts Company, 14111 Scottslawn Road, Marysville, Ohio 43041) comprising spaghnum peat moss, vermiculite, wetting agent and starter nutrients were treated with postemergence applications of test chemicals formulated in the same manner. Plants ranged in height from 2 to 18 cm for postemergence treatments (1- to 4-leaf stage). Treated plants and controls were maintained in a greenhouse for 14 to 21 d, after which time all species were compared to controls and visually evaluated. Plant response ratings, summarized in Table E, are based on a scale of 0 to 100 where 0 is no effect and 100 is complete control. A dash (-) response means no test result.

[11] = test system: waterhemp_RES2 (ALS & HPPD resistant common waterhemp, Amaranthus rudis); experiment: Test E greenhouse herbicide test, postemergence
Procedure: as §2

[12] = test system: wild poinsettia (Euphorbia heterophylla); experiment: Test E greenhouse herbicide test, pre- and postemergence; conditions: Postemergence
How it was run: as §1

[13] = 62 g ai/ha, Postemergence, scale 0 to 100 (0 no effect, 100 complete control)
[14] = 62 g ai/ha, Preemergence, scale 0 to 100 (0 no effect, 100 complete control)
[15] = 125 g ai/ha, Postemergence, scale 0 to 100 (0 no effect, 100 complete control)
[16] = 125 g ai/ha, Preemergence, scale 0 to 100 (0 no effect, 100 complete control)
[17] = 250 g ai/ha, Postemergence, scale 0 to 100 (0 no effect, 100 complete control)
[18] = Postemergence, 31 g ai/ha, visual, scale 0 no effect to 100 complete control
[19] = Preemergence, 31 g ai/ha, scale 0 to 100, 0 no effect, 100 complete control
[20] = Preemergence, 250 g ai/ha, visual, scale 0 no effect to 100 complete control
[21] = Preemergence, 125 g ai/ha, visual, scale 0 no effect to 100 complete control
[22] = 62 g ai/ha, scale 0 to 100 (0 no effect, 100 complete control)
[23] = 31 g ai/ha, scale 0 to 100, 0 no effect, 100 complete control
[24] = 125 g ai/ha, visual, scale 0 no effect to 100 complete control
[25] = 250 g ai/ha, visual, scale 0 no effect to 100 complete control
[26] = 125 g ai/ha, scale 0 to 100 (0 no effect, 100 complete control)
[27] = 31 g ai/ha, visual, scale 0 no effect to 100 complete control
[28] = 250 g ai/ha, scale 0 to 100 (0 no effect, 100 complete control)

Cc1cc2ccccc2c(-c2c(O)c(C)nn(C)c2=O)c1C [Compound 34]
Plant response rating, Ryegrass, Italian [1, 13]: 80 | Plant response rating, Ryegrass, Italian [1, 14]: 100 | Plant response rating, Ryegrass, Italian [1, 15]: 85 | Plant response rating, Ryegrass, Italian [1, 16]: 100 | Plant response rating, Ryegrass, Italian [1, 17]: 90 | Plant response rating, Ryegrass, Italian [1, 18]: 65 | Plant response rating, Ryegrass, Italian [1, 19]: 90 | Plant response rating, Ryegrass, Italian [1, 20]: 100 | Plant response rating, Beggarticks [2, 13]: 100 | Plant response rating, Beggarticks [2, 14]: 100 | Plant response rating, Beggarticks [2, 15]: 98 | Plant response rating, Beggarticks [2, 17]: 100 | Plant response rating, Beggarticks [2, 18]: 90 | Plant response rating, Beggarticks [2, 19]: 90 | Plant response rating, Beggarticks [2, 21]: 100 | Plant response rating, Beggarticks [2, 20]: 100 | Plant response rating, Corn (corn (Zea mays); [13]): 0 | Plant response rating, Corn (corn (Zea mays); [14]): 0 | Plant response rating, Corn (corn (Zea mays); [15]): 0 | Plant response rating, Corn (corn (Zea mays); [17]): 5 | Plant response rating, Corn (corn (Zea mays); [18]): 0 | Plant response rating, Corn (corn (Zea mays); [19]): 0 | Plant response rating, Corn (corn (Zea mays); [21]): 0 | Plant response rating, Corn (corn (Zea mays); [20]): 0 | Plant response rating, Dayflower, VA [3, 13]: 80 | Plant response rating, Dayflower, VA [3, 14]: 35 | Plant response rating, Dayflower, VA [3, 15]: 90 | Plant response rating, Dayflower, VA [3, 17]: 90 | Plant response rating, Dayflower, VA [3, 18]: 60 | Plant response rating, Dayflower, VA [3, 19]: 35 | Plant response rating, Dayflower, VA [3, 21]: 70 | Plant response rating, Dayflower, VA [3, 20]: 90 | Plant response rating, Foxtail, Green [4, 22]: 0 | Plant response rating, Foxtail, Green [4, 23]: 0 | Plant response rating, Foxtail, Green [4, 24]: 25 | Plant response rating, Foxtail, Green [4, 25]: 65 | Plant response rating, Kochia (kochia (Kochia scoparia); [13]): 98 | Plant response rating, Kochia (kochia (Kochia scoparia); [14]): 5 | Plant response rating, Kochia (kochia (Kochia scoparia); [15]): 85 | Plant response rating, Kochia (kochia (Kochia scoparia); [17]): 85 | Plant response rating, Kochia (kochia (Kochia scoparia); [18]): 70 | Plant response rating, Kochia (kochia (Kochia scoparia); [19]): 0 | Plant response rating, Kochia (kochia (Kochia scoparia); [21]): 5 | Plant response rating, Kochia (kochia (Kochia scoparia); [20]): 85 | Plant response rating, Lambsquarters [5, 22]: 100 | Plant response rating, Lambsquarters [5, 23]: 10 | Plant response rating, Lambsquarters [5, 24]: 100 | Plant response rating, Lambsquarters [5, 25]: 98 | Plant response rating, Nutsedge, Yellow [6, 22]: 80 | Plant response rating, Nutsedge, Yellow [6, 26]: 40 | Plant response rating, Nutsedge, Yellow [6, 23]: 0 | Plant response rating, Nutsedge, Yellow [6, 25]: 80 | Plant response rating, Sandbur [7, 13]: 80 | Plant response rating, Sandbur [7, 14]: 40 | Plant response rating, Sandbur [7, 15]: 85 | Plant response rating, Sandbur [7, 16]: 65 | Plant response rating, Sandbur [7, 17]: 90 | Plant response rating, Sandbur [7, 18]: 70 | Plant response rating, Sandbur [7, 19]: 0 | Plant response rating, Sandbur [7, 20]: 70 | Plant response rating, Velvetleaf [8, 22]: 90 | Plant response rating, Velvetleaf [8, 26]: 100 | Plant response rating, Velvetleaf [8, 23]: 20 | Plant response rating, Velvetleaf [8, 25]: 100 | Plant response rating, Waterhemp [9, 13]: 85 | Plant response rating, Waterhemp [9, 14]: 100 | Plant response rating, Waterhemp [9, 15]: 85 | Plant response rating, Waterhemp [9, 16]: 100 | Plant response rating, Waterhemp [9, 17]: 90 | Plant response rating, Waterhemp [9, 18]: 70 | Plant response rating, Waterhemp [9, 19]: 100 | Plant response rating, Waterhemp [9, 20]: 100 | Plant response rating, Waterhemp_RES1 [10, 27]: 90 | Plant response rating, Waterhemp_RES1 [10, 22]: 90 | Plant response rating, Waterhemp_RES1 [10, 26]: 90 | Plant response rating, Waterhemp_RES1 [10, 28]: 95 | Plant response rating, Waterhemp_RES2 [11, 27]: 40 | Plant response rating, Waterhemp_RES2 [11, 22]: 80 | Plant response rating, Waterhemp_RES2 [11, 28]: 70

Cc1nn(C)c(=O)c(-c2cccc3ccc(Br)cc23)c1O [Compound 126]
Plant response rating, Ryegrass, Italian [1, 13]: 80 | Plant response rating, Ryegrass, Italian [1, 15]: 85 | Plant response rating, Ryegrass, Italian [1, 17]: 90 | Plant response rating, Ryegrass, Italian [1, 18]: 70 | Plant response rating, Beggarticks [2, 13]: 100 | Plant response rating, Beggarticks [2, 15]: 100 | Plant response rating, Beggarticks [2, 17]: 100 | Plant response rating, Beggarticks [2, 18]: 100 | Plant response rating, Corn (corn (Zea mays); [13]): 10 | Plant response rating, Corn (corn (Zea mays); [15]): 5 | Plant response rating, Corn (corn (Zea mays); [17]): 5 | Plant response rating, Corn (corn (Zea mays); [18]): 0 | Plant response rating, Dayflower, VA [3, 13]: 20 | Plant response rating, Dayflower, VA [3, 15]: 50 | Plant response rating, Dayflower, VA [3, 17]: 50 | Plant response rating, Dayflower, VA [3, 18]: 0 | Plant response rating, Kochia (kochia (Kochia scoparia); [13]): 100 | Plant response rating, Kochia (kochia (Kochia scoparia); [15]): 100 | Plant response rating, Kochia (kochia (Kochia scoparia); [17]): 100 | Plant response rating, Kochia (kochia (Kochia scoparia); [18]): 100 | Plant response rating, Sandbur [7, 15]: 40 | Plant response rating, Sandbur [7, 17]: 40 | Plant response rating, Sandbur [7, 18]: 0 | Plant response rating, Waterhemp [9, 15]: 90 | Plant response rating, Waterhemp [9, 17]: 90 | Plant response rating, Waterhemp [9, 18]: 75 | Plant response rating, Poinsettia, Wild [12, 22]: 20 | Plant response rating, Poinsettia, Wild [12, 26]: 50 | Plant response rating, Poinsettia, Wild [12, 28]: 50 | Plant response rating, Poinsettia, Wild [12, 27]: 30 | Plant response rating, Waterhemp_RES1 [10, 27]: 75 | Plant response rating, Waterhemp_RES1 [10, 26]: 90 | Plant response rating, Waterhemp_RES1 [10, 28]: 100 | Plant response rating, Waterhemp_RES2 [11, 27]: 55 | Plant response rating, Waterhemp_RES2 [11, 26]: 70 | Plant response rating, Waterhemp_RES2 [11, 28]: 85
